Experimental data: US12377104B1, “Methods for treating a fatty liver disease” (Madrigal Pharmaceuticals, Inc., priority 2024, dated 2025)

Test system: NASH patients with fibrosis stage F1A or F1C
Assay: MAESTRO-NASH: exploratory F1 (F1A/F1C) population, endpoints and safety

SMILES: CC(C)c1cc(Oc2c(Cl)cc(-n3nc(C#N)c(=O)[nH]c3=O)cc2Cl)n[nH]c1=O [Resmetirom, 2-(3,5-dichloro-4-((5-isopropyl-6-oxo-1,6-dihydropyridazin-3-yl)oxy)phenyl)-3,5-dioxo-2,3,4,5-tetrahydro-1,2,4-triazine-6-carbonitrile]
- Any Serious TEAE, % (80 mg): (20.0) %
- Any TEAEs leading to Study Discontinuation, % (80 mg): (13.3) %
- TEAE Grade 1, % (80 mg): (20.0) %
- TEAE Grade 2, % (80 mg): (53.3) %
- TEAE Grade 3, % (80 mg): (16.7) %
- Any TEAE, % (80 mg (N = 30)): (93.3) %
- Fibrosis improvement endpoint (80 mg (N = 30)): 21.7%
- Nash resolution endpoint (80 mg (N = 30)): 38.3%
- Any Serious TEAE, % (100 mg): (23.1) %
- Any TEAEs leading to Study Discontinuation, % (100 mg): (11.5) %
- TEAE Grade 1, % (100 mg): (19.2) %
- TEAE Grade 2, % (100 mg): (46.2) %
- TEAE Grade 3, % (100 mg): (15.4) %
- Any TEAE, % (100 mg (N = 26)): (80.8) %
- Fibrosis improvement endpoint (100 mg (N = 26)): 15.4%
- Nash resolution endpoint (100 mg (N = 26)): 25.0%
- Abdominal pain upper, % (AEs >5%, 80 mg): (6.7) %
- Abdominal pain, % (AEs >5%, 80 mg): (3.3) %
- Arthralgia, % (AEs >5%, 80 mg): (20.0) %
- Back pain, % (AEs >5%, 80 mg): (13.3) %
- Constipation, % (AEs >5%, 80 mg): (13.3) %
- Diarrhea, % (AEs >5%, 80 mg): (26.7) %
- Dizziness, % (AEs >5%, 80 mg): (6.7) %
- Fatigue, % (AEs >5%, 80 mg): (10.0) %
- Headache, % (AEs >5%, 80 mg): (13.3) %
- Hypertension (AE), % (AEs >5%, 80 mg): (3.3) %
- Nausea, % (AEs >5%, 80 mg): (16.7) %
- Pruritus, % (AEs >5%, 80 mg): (6.7) %
- Pyrexia, % (AEs >5%, 80 mg): (6.7) %
- Rash, % (AEs >5%, 80 mg): (10.0) %
- Type 2 diabetes mellitus (AE), % (AEs >5%, 80 mg): (3.3) %
- Urinary tract infection, % (AEs >5%, 80 mg): (6.7) %
- Vomiting, % (AEs >5%, 80 mg): (3.3) %
- Weight decreased, % (AEs >5%, 80 mg): (3.3) %
- Abdominal pain upper, % (AEs >5%, 100 mg): (3.8) %
- Abdominal pain, % (AEs >5%, 100 mg): (7.7) %
- Arthralgia, % (AEs >5%, 100 mg): (7.7) %
- Back pain, % (AEs >5%, 100 mg): (11.5) %
- Constipation, % (AEs >5%, 100 mg): (7.7) %
- Cough, % (AEs >5%, 100 mg): (3.8) %
- Diarrhea, % (AEs >5%, 100 mg): (19.2) %
- Dizziness, % (AEs >5%, 100 mg): (7.7) %
- Fatigue, % (AEs >5%, 100 mg): (7.7) %
- Nausea, % (AEs >5%, 100 mg): (7.7) %
- Osteopenia, % (AEs >5%, 100 mg): (7.7) %
- Pruritus, % (AEs >5%, 100 mg): (15.4) %
- Rash, % (AEs >5%, 100 mg): (7.7) %
- Type 2 diabetes mellitus (AE), % (AEs >5%, 100 mg): (3.8) %
- Urinary tract infection, % (AEs >5%, 100 mg): (15.4) %
- Vomiting, % (AEs >5%, 100 mg): (11.5) %
- Weight decreased, % (AEs >5%, 100 mg): (11.5) %
